According to patent US10278909B2, “Composition suitable to preserve the physiological condition of skin and hair and reestablish their regenerative functions” (GIULIANI S.P.A., priority 2014, dated 2019):

Test system: Human Hair Follicle Outer Root Sheath Cells (HHFORSC)
Experiment: ATP assay in Human Hair Follicle Outer Root Sheath Cells (Abcam ATP-assay kit, absorbance 570 nm)
Type: cell-based
Settings: 24 h treatment, carnitine 10 mg/ml, caffeine 10 mg/ml, arginine 30 mg/ml (alone or combined); for ATP % vs control: control = culture medium only = 100
Experimental: Human Hair Follicle Outer Root Sheath Cells (HHFORSC), supplied by Innoprot, are isolated by ScienCell Research Labs from the outer sheath of the root of human hair. The cell line was grown in culture medium for mesenchymal stem cells (MSCM): 500 mL basal medium, 20% fetal bovine serum (FBS), 1% growth supplement for mesenchymal stem cells (MSCGS), 1% penicillin/streptomycin (P/S solution) and maintained in 25 cm^2 culture flasks at 37° C. and 5% CO2. Before proceeding with plating the cells, the flask cells is coated with poly-L-lysine (2 μg/cm^2). Every two days, the confluent cultures are divided 1:3-1:6, after washing with DPBS (Dulbecco's Phosphate-Buffered Saline), using a solution of T/E (trypsin/EDTA solution) and TNS (Trypsin Neutralization Solution) and seeded at 2-5×^4 cell/cm^2, 37° C., 5% CO2. When the cells (HHFORSC) reach about 80% confluence, they are detached with trypsin/EDTA and seeded at a density of 1×10^6 cells/ml in 12-well plates and then incubated at 37° C., 5% CO2 (24 h). When the cells reach about 80% confluence, they are treated with samples of the following compounds or mixtures of compounds, tested at the concentrations described hereafter: • Carnitine 10 mg/ml • Caffeine 10 mg/ml • Arginine 30 mg/ml • Carnitine 10 mg/ml+Caffeine 10 mg/ml • Carnitine 10 mg/ml+Arginine 30 mg/ml • Caffeine 10 mg/ml+Arginine 30 mg/ml • Carnitine 10 mg/ml+Caffeine 10 mg/ml+Arginine 30 mg/ml The cells treated with culture medium only were used as control. All the cells were incubated at 37° C., 5% CO2 for 24 h. […] The samples were then lysed by pipetting repeatedly and centrifuged to remove insoluble materials, and finally stored on ice until use. […] The samples were incubated at room temperature for 30 minutes, in the dark. The absorbance was read at a wavelength of 570 nm with a reference filter of 630 nm in a microplate reader Biotek ELX808 using a predetermined protocol and after having correctly defined a layout of the plate. The ATP concentration was calculated by interpolating the data of the standard curve after subtraction of the blank: [ATP] (nmol/μl)=Ts/Sv where Ts is the amount of ATP from the standard curve (nmol); SV is the volume of the sample (before dilution) added to the sample wells (μl).

Row | Compound | Δ % (increase in the production of cellular ATP vs untreated control) [%] | ATP % vs control [%]
1 | N=C(N)NCCC[C@H](N)C(=O)O [Arginine] | 32.944 | 132.94
2 | Cn1c(=O)c2c(ncn2C)n(C)c1=O [Caffeine] | 26.843 | 126.84
3 | C[N+](C)(C)CC(O)CC(=O)[O-] (stereo not drawn) [Carnitine] | 34.164 | 134.16
